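96-well plates; 48 h exposure; 5 concentrations. Endpoints by linear interpolation between flanking doses. Not reached: highest tested concentration assigned. GI50: concentration for 50% inhibition of growth. At the TGI there is no net growth.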
Experiments:
Test in all cases: NCI tumour cell line growth inhibition, 48 h
SNB-19 CNS = system: SNB-19 CNS
HOP-92 NSCLC = system: HOP-92 NSCLC
BT-549 breast = system: BT-549 breast
UACC-257 melanoma = system: UACC-257 melanoma
SK-MEL-2 melanoma = system: SK-MEL-2 melanoma
A549 NSCLC = system: A549 NSCLC
RXF 393 renal = system: RXF 393 renal
SW-620 colon = system: SW-620 colon
CAKI-1 renal = system: CAKI-1 renal
NCI-H226 lung = system: NCI-H226 lung

Row | SMILES | GI50 (SNB-19 CNS) | TGI (SNB-19 CNS) | GI50 (HOP-92 NSCLC) | TGI (HOP-92 NSCLC) | GI50 (BT-549 breast) | TGI (BT-549 breast) | GI50 (UACC-257 melanoma) | TGI (UACC-257 melanoma) | GI50 (SK-MEL-2 melanoma) | TGI (SK-MEL-2 melanoma) | GI50 (A549 NSCLC) | TGI (A549 NSCLC) | GI50 (RXF 393 renal) | TGI (RXF 393 renal) | GI50 (SW-620 colon) | TGI (SW-620 colon) | GI50 (CAKI-1 renal) | TGI (CAKI-1 renal) | GI50 (NCI-H226 lung) | TGI (NCI-H226 lung)
1 | CN1CCN(Cc2ccc(NC(=O)c3[nH]ncc3Nc3ncnc4[nH]ccc34)cc2)CC1 | 0.373 µM | 6.59 µM | 0.431 µM | 0.741 µM | 0.297 µM | 1.07 µM | 0.531 µM | 17.8 µM | 0.325 µM | 0.921 µM | 0.742 µM | 10.8 µM | 0.199 µM | 0.464 µM | 0.381 µM | 11.6 µM | 1.83 µM | 8.19 µM | 0.205 µM | 1.87 µM
2 | O=C1NC(=O)C(=Cc2cn(Cc3ccccc3)c3ccccc23)C(=O)N1 | 16.2 µM | 38.9 µM | 1.5 µM | 19.9 µM | 15.4 µM | 50.1 µM | 7.07 µM | 35.1 µM | 6.41 µM | 28.3 µM | 13 µM | 30.7 µM | 11.6 µM | 48.3 µM | 12.1 µM | 28.9 µM | 2.15 µM | 10.5 µM | 0.951 µM | 3.29 µM
3 | CCCCC#Cc1c(I)n(C2OC(CO[Si](C)(C)C(C)(C)C)C3OC(C)(C)OC32)c(=O)n(C(=O)c2ccccc2)c1=O (stereo unspecified) | 14.1 µM | 28.4 µM | 0.885 µM | 13.5 µM | 8.98 µM | 20.4 µM | 16.4 µM | 30.7 µM | 2.09 µM | 4.75 µM | > 100 µM | > 100 µM | 11 µM | 23.9 µM | 2.33 µM | 6.03 µM | 3.67 µM | 18.4 µM | 17.6 µM | 37.6 µM
4 | C=C(C)[C@@H]1CCc2c(O)c(O)c(=O)cc(C)c2C1 | – | > 100 µM | – | 17 µM | – | > 100 µM | – | > 100 µM | – | > 100 µM | – | > 100 µM | – | > 21.2 µM | – | > 100 µM | – | 10.9 µM | – | > 63 µM
5 | N#CC1=C(N)NC(N2CCOCC2)=NC12Nc1ccccc1O2 (stereo unspecified) | 90.7 µM | > 100 µM | > 100 µM | > 100 µM | 43.5 µM | > 100 µM | 49.7 µM | > 100 µM | 39.7 µM | > 100 µM | 70 µM | > 100 µM | 61.5 µM | > 100 µM | 43.2 µM | > 100 µM | 25.3 µM | 86.7 µM | 98.7 µM | > 100 µM
6 | COc1cc(C2c3cc4c(cc3OC(O)C2C)OCO4)cc(OC)c1OC (stereo unspecified) | – | > 100 µM | – | 7.53 µM | – | > 59.2 µM | – | > 100 µM | – | 13.3 µM | – | – | – | > 100 µM | – | > 100 µM | – | 37.4 µM | – | 7.33 µM
7 | COc1ccc(C2NN=C3c4ccccc4CCC32)cc1 (stereo unspecified) | 14.5 µM | > 100 µM | 19.4 µM | > 100 µM | 5.29 µM | 95.4 µM | 19.4 µM | 79.4 µM | 28.5 µM | > 100 µM | 19.7 µM | 76.6 µM | 23.1 µM | > 100 µM | 9.19 µM | > 100 µM | 9.38 µM | 21.4 µM | > 100 µM | > 100 µM
8 | COc1c(OC)c(OC)c2c(=O)cc(-c3ccc(OC(C)C)cc3)oc2c1OC | – | > 53.5 µM | – | 23.4 µM | – | > 49.9 µM | – | > 58.9 µM | – | > 50.7 µM | – | > 51.1 µM | – | > 48.7 µM | – | > 58.8 µM | – | 35.1 µM | – | 32.3 µM
9 | CCCCCCCCCCCNC=O | – | > 100 µM | – | > 100 µM | – | 57.5 µM | – | > 100 µM | – | 66.1 µM | – | > 100 µM | – | > 100 µM | – | > 100 µM | – | > 100 µM | – | > 100 µM
10 | COc1cc(Cl)c(CC(=O)c2c[nH]c3ccccc23)cc1OC | – | > 95 µM | – | 15.6 µM | – | > 100 µM | – | > 100 µM | – | > 100 µM | – | > 100 µM | – | 40.9 µM | – | > 100 µM | – | > 100 µM | – | 45.1 µM
11 | COC1=C(OC)C(=O)C(C/C=C(\C)CC/C=C(\C)CC/C=C(\C)CC/C=C(\C)CC/C=C(\C)CC/C=C(\C)CC/C=C(\C)CC/C=C(\C)CC/C=C(\C)CCC=C(C)C)=C(C)C1=O | > 100 µM | > 100 µM | > 100 µM | > 100 µM | > 100 µM | > 100 µM | > 100 µM | > 100 µM | > 100 µM | > 100 µM | > 100 µM | > 100 µM | > 100 µM | > 100 µM | > 100 µM | > 100 µM | > 100 µM | > 100 µM | > 100 µM | > 100 µM
12 | Cc1ccc(S(=O)(=O)n2cc([C@@]3(O)C[C@H](CSC#N)OC3=O)c3ccccc32)cc1 | > 100 µM | > 100 µM | 23.9 µM | 71.3 µM | 16.9 µM | 33.1 µM | 10.9 µM | 56.4 µM | 9.23 µM | 24.4 µM | 29.2 µM | > 100 µM | 2.13 µM | 7.61 µM | 5.98 µM | 19.5 µM | 0.0836 µM | 25.8 µM | 16.8 µM | 32.6 µM
13 | CC12OC(C(=O)C13CC3)C1C(=O)c3c(O)ccc(O)c3C(=O)C12 (stereo unspecified) | 28.9 µM | > 100 µM | 11.9 µM | 41 µM | 22.1 µM | 51.8 µM | 13.9 µM | 29.1 µM | 33.9 µM | > 100 µM | 17.5 µM | 39.2 µM | 16.7 µM | 37.6 µM | – | – | 4.68 µM | 17.9 µM | – | –
14 | COc1cc(OC)c2c(=O)cc(-c3ccccc3OCc3ccccc3)oc2c1OC | 41.7 µM | > 100 µM | 2.63 µM | 18.6 µM | 3.76 µM | 24.6 µM | 6.05 µM | 82.1 µM | > 100 µM | > 100 µM | 63.5 µM | > 100 µM | > 100 µM | > 100 µM | 8.06 µM | > 100 µM | 3.21 µM | 24.2 µM | 6.25 µM | 44 µM
15 | CC1=C(CO)C(=O)O[C@@H]([C@@H](C)[C@H]2CC[C@H]3[C@@H]4C[C@H]5O[C@]56[C@@H](O)C=CC(=O)[C@]6(C)[C@H]4CC[C@]23C)C1 | – | 6.07 µM | – | 1.46 µM | 0.79 µM | 2.15 µM | – | 2.32 µM | – | 1.93 µM | – | 3.96 µM | 0.44 µM | 1.66 µM | – | 0.603 µM | – | 0.773 µM | – | 2.86 µM
16 | Cc1nn(C)c2ncnc(N/N=C/c3cccc(O)c3O)c12 | 0.664 µM | > 48.4 µM | 0.747 µM | 13.8 µM | 0.602 µM | > 100 µM | 1.38 µM | > 37.1 µM | 2.98 µM | > 76.3 µM | 2.11 µM | > 100 µM | 0.513 µM | > 27.7 µM | 0.48 µM | > 100 µM | 1.31 µM | 16.5 µM | 3.69 µM | > 49.2 µM
17 | C=C(C(=O)OC)[C@@H]1CC2OC1C(=O)C(C)CCC/C(C)=C/CC[C@@]2(C)O (stereo partly specified) | > 100 µM | > 100 µM | 23.8 µM | 95.2 µM | 25.2 µM | 55.7 µM | 23.3 µM | 76.3 µM | 37.8 µM | > 100 µM | 20.1 µM | 46 µM | 18 µM | 36.4 µM | 15 µM | 30.1 µM | 11.4 µM | 27.6 µM | – | –
18 | N#C/C(=C/N1CCN(C(=O)c2ccco2)C1=S)C(=O)Nc1ccc(Cl)cc1 | 27.6 µM | > 50 µM | 21.5 µM | > 50 µM | 8.63 µM | 21.9 µM | 16.5 µM | 48.4 µM | 16.7 µM | 39.7 µM | 25.8 µM | > 50 µM | 13.1 µM | 44.9 µM | 17.3 µM | > 50 µM | 13.2 µM | > 50 µM | – | –
19 | CC12CCC(=O)C(O1)C1C(=O)c3ccc4c(ccc5ccccc54)c3C(=O)C12 (stereo unspecified) | 20.9 µM | 52 µM | 7.1 µM | 32.3 µM | 6.69 µM | 13.2 µM | 3.11 µM | 8.15 µM | 10 µM | > 28.6 µM | 9.34 µM | 33.2 µM | – | 2.03 µM | – | – | 1.82 µM | 6.63 µM | 5.78 µM | 12.7 µM
20 | CC(C)(C)c1ccc(C2CC(=O)C3=C(C2)Nc2ccccc2N(C(=O)c2ccccc2Cl)C3c2ccc(F)cc2)cc1 (stereo unspecified) | > 100 µM | > 100 µM | > 100 µM | > 100 µM | > 100 µM | > 100 µM | > 100 µM | > 100 µM | – | – | > 100 µM | > 100 µM | > 100 µM | > 100 µM | > 100 µM | > 100 µM | > 100 µM | > 100 µM | > 100 µM | > 100 µM
21 | COc1ccc(Nc2ncnc3ccc(-c4cncc(NS(C)(=O)=O)c4)cc23)cc1Cl | 2.81 µM | 24.4 µM | 0.348 µM | 4.62 µM | 1.67 µM | 7.12 µM | 2.82 µM | 14 µM | 1.02 µM | 2.67 µM | 5.18 µM | 22.9 µM | 2.08 µM | 5.63 µM | 3.23 µM | 12.4 µM | – | – | 2.69 µM | 18.1 µM

Source: PubChem BioAssay (NCI)
